How the values were obtained:
[1] = system: rat uterus; mouse seminal vesicle plus prostate; assay: Sex steroid hormonal or anti-hormonal activity (estrogenic, anti-estrogenic, androgenic, anti-androgenic); settings: in vivo
Description: Female CD rats, 26-27 days old, were injected subcutaneously for 3 days with one of the compounds of the present invention at 60 mg/kg in propylene glycol. Controls received propylene glycol alone. On the 4th day the rats were killed and the uteri were dissected out and weighed. The results are given below:
(§1) (a) Male A/J mice (5 weeks old) were obtained from the Jackson Laboratory and were housed in polycarbonate cages (5 mice/cage) in animal quarters maintained at 24°[…] C. with 12 hours of light and 12 hours of darkness each day. One week after arrival, the mice were placed on a chow diet containing one of the test compounds of the present invention at 0.36%. After 4 weeks of treatment, the above mice were killed, and the seminal vesicles and prostate glands were dissected out and weighed.

[2] = system: seminal vesicles plus prostate glands; assay: Androgenic and anti-androgenic activity (seminal vesicle plus prostate weight); format: in vivo, mouse (male A/J); settings: con't. experiment; five weeks; DHEA 0.54%; n = 5
[3] = system: TPA (Tumor Promoter) Stimulation of Mouse Epidermal DNA; assay: Inhibition of TPA stimulation of mouse epidermal DNA synthesis (3H-thymidine incorporation), oral; format: in vivo, mouse (ICR male); settings: oral, single administration
Excerpt: Synthesis rate by orally administered steroids.
The inhibition of tumor promoter stimulation of mouse epidermal DNA synthesis rate by steroids may also contribute to cancer preventive activity. The following assay is used:
ICR male mice (7-9 weeks old) were shaved on the back 1-2 days before use. Only mice showing no hair regrowth were used. Animals were orally intubated with a particular steroid suspended by homogenization in sesame oil or with sesame oil alone (controls). One hour later TPA (10 μg in 0.2 ml of acetone) or acetone vehicle was applied topically to the shaved skin. Twenty hours later, mice were injected i.p. with 60 μCi of ^3 H-thymidine 20 minutes before sacrifice. The animals were killed by cervical dislocation and the residual hair was removed with a depilatory agent. Epidermal scrapings were prepared according to the procedures of Hennings et al. (Cancer Res. 28, 53, 1968), homogenized in distilled water at 4° C., and the macromolecules precipitated with 0.4N trichloroacetic acid (TCA). Following 6 washes with absolute ethanol at room temperature, the nucleic acids were hydrolyzed with 0.5N TCA at 70° C. for 5 minutes. The hydrolysate (0.2 ml aliquots) were counted in an Intertechnique scintillation counter and assayed for DNA by the diphenylamine reaction.
The data are expressed as counts per minute (cpm) of tritium per μg of DNA.
A similar oral dose-response experiment with compound 16 and DHEA was performed.
(§2) Both of the above tests, i.e., the inhibition of mammalian glucose-6-phosphate dehydrogenase (G6PDH) and the inhibition of tumor promoter (TPA) stimulation of ^3 H-thymidine incorporation in mouse epidermis are recognized as indicators of cancer prophylactic activity. The following Table compares the efficacy of representative compounds of the present invention in these two tests with that of DHEA:
(§3) Male ICR mice were orally intubated with steroid suspended in sesame oil (0.5 ml/mouse) at the indicated dose. Mice not receiving steroid were given sesame oil alone. One hour later mice received topical application of TPA and 20 hours later the rate of ^3 H-thymidine incorporation into the epidermis was determined as described in Table 4.
as §3, with “TPA,” for “TPA”

[4] = system: seminal vesicles plus prostate glands; assay: Androgenic and anti-androgenic activity (seminal vesicle plus prostate weight); format: in vivo, mouse (male A/J)
Description: Male A/J mice (5 weeks old) were obtained from the Jackson Laboratory and were housed in polycarbonate cages (5 mice/cage) in animal quarters maintained at 24°±1° C. with 12 hours of light and 12 hours of darkness each day. One week after arrival, mice were placed on a chow diet containing either 0.18% or 0.09% 16 or without steroid. Mice were weighed weekly. After 4 weeks, the mice were killed, and the seminal vesicles plus prostate glands were dissected out and weighed.
as §1

[5] = system: [3H]DMBA binding to skin DNA; assay: [3H]DMBA binding to skin DNA, oral steroid; format: in vivo, mouse (male A/J); settings: 12 hours
Description: (§4) Male A/J mice were orally intubated with steroid suspended in sesame oil (0.5 ml/mouse) at the indicated dose. Mice not receiving steroid were given sesame oil alone. Food restricted mice received approximately 60% of food of Ad libitum fed for two weeks. One hour after oral intubation, topical [^3 H]DMBA was applied to the skin, and the amount bound to DNA was determined 12 hours later as described in Table 4.
as §4, with “alone.” for “alone. Food restricted mice received approximately 60% of food of Ad libitum fed for two weeks.”

[6] = Anti-obesity test (body weight, food consumption); format: in vivo, mouse (male A/J); settings: for anti-weight effect (in words): 400 mg/kg repeated (DHEA), cancer preventive dosages (19, 20); for weekly weight (Table 13): 0.54% in food; for mean weekly weight ± S.D.: 0.36% of diet, n = 5
Description: Male A/J mice (5 weeks old) were obtained from the Jackson Laboratory and were housed in polycarbonate cages (5 mice/cage) in animal quarters maintained at 24°±1° C. with 12 hours of light and 12 hours of darkness each day. One week after arrival, the mice were placed on a chow diet containing varying concentrations of DHEA or other steroid. Animals were weighed weekly; food consumption was determined weekly by subtracting the amount of food remaining in the cage from the amount added.
Male A/J (5 weeks old) were obtained from the Jackson Laboratory and were housed in polycarbonate cages (5 mice/cage) in animal quarters maintained at 24°±1° C. with 12 hours of light and 12 hours of darkness each day. One week after arrival, the mice were placed on a diet containing either DHEA, 19, or without steroid. Animals were weighed weekly. The concentration of DHEA or 19 used in the food was 0.54%.
Male A/J mice (5 weeks old) were obtained from the Jackson Laboratory and were housed in polycarbonate cages (5 mice/cage) in animal quarters maintained at 24°±1° C. with 12 hours of light and 12 hours of darkness each day. One week after arrival, the mice were placed on a show diet containing DHEA, 16, or 21 at 0.36%. Animals were weighed weekly.

rat uterus [7] = assay: Estrogenic and anti-estrogenic activity (uterine weight, s.c., CD rats); format: in vivo, rat (female CD); settings: for Mean Uterine Weight ± S.D.: 60 mg/kg s.c., 3 days, Tables 16 and 17
Description: Female CD rats, 26-27 days old, were used. Rats were injected subcutaneously for 3 days with either DHEA or 16 in propylene glycol. Control rats received propylene glycol alone. The rats were killed on the 4th day and the uteri were removed and weighed.
Female CD rats, 26-27 days old, were injected subcutaneously for 3 days with one of the compounds of the present invention at 60 mg/kg in propylene glycol. Controls received propylene glycol alone. On the 4th day the rats were killed and the uteri were dissected out and weighed.

[8] = biological target: T1, purified bovine adrenal G6PDH (Bos taurus, UniProt F1MMK2); assay: Inhibition of purified bovine adrenal G6PDH; format: biochemical; settings: for inhibition at 1 µM: Conc. 1 μm; for inhibition at 1 µM / inhibition at 10 µM: read-out: Percent Inhibition (G6PDH); for inhibition at 10 µM: Conc. 10 μm
T1 construct: full-length, wild type, no tag
Excerpt: The compounds listed below are screened as inhibitors of purified bovine adrenal G6PDH activity as one predictor of cancer preventive action. The assay for testing the inhibition of purified bovine adrenal G6PDH is according to the procedure by Oertel, G. W. and Rebelein, I. in Biochem. Biophys. Acta, 184, 459-460 (1969). The results are given below in Table I:
as §2, with “DHEA: […]” for “DHEA:”

rat uterus [9] = assay: Uterotrophic test for estrogenic activity, oral; format: in vivo; settings: 14 μg/kg oral; 3 days; n = 6
Excerpt: Uterotrophic Test for Estrogenic Activity. Compound 16 vs. DHEA and Estradiol-benzoate. Compounds Given by Oral Administration.
Twenty-two day old rats were obtained from Charles River Laboratories. Animals were used at 29 days of age. Test steroids were suspended by homogenization in sesame oil. Rats were orally intubated at 1-2 P.M. for 3 days with a test steroid in sesame oil or with sesame oil alone (control). On the 4th day the animals were killed and the uteri were removed and weighed.

[10] = system: (3H) DMBA binding to skin DNA; assay: [3H]DMBA binding to mouse skin DNA, topical steroid; format: in vivo, mouse (A/J); settings: topical; A/J mouse
Excerpt: Skin tumors can be induced in the mouse either by weekly application of a carcinogen such as […] (DMBA), or alternatively,by a single sub-threshold dose of the carcinogen followed by twice weekly applications of the tumor promoter tetradecanoylphorbol-13-acetate (TPA). In order to exert its carcinogenic effect, DMBA must be metabolized by an NADPH-dependent mixed-function oxidase to chemically reactive intermediates which bind covalently to DNA and produce mutations leading to malignant transformation. […] This effect of DHEA very probably is a result of the inhibition of G6PDH and lowering of the intracellular pool of NADPH, which is a co-factor for the mixed-function oxidase activation of DMBA.
Binding of [^3 H]DMBA to mouse skin DNA was determined as described in Pashko, L. L., and Schwartz, A. G. (1983), Effect of food restriction, dehydroepiandrosterone, or obesity on the binding of ^3 H-7,12-dimethylbenz(a)-anthracene to mouse skin DNA, J. Gerontol., 38, 8-12. Values are mean±SD for 3 individual determinations, with pooled tissue from 2 mice used for each determination. DHEA or testosterone (400 ug in 0.2 ml acetone) was applied to the skin one hour before [^3 H]DMBA. The mean weight of the food restricted mice was 18.5±1.0 gm, n=6, of the ad libitum fed, 27.4±1.0 gm, n=6, of the ad libitum fed treated with DHEA, 28.2±0.9 gm, n=6, and of the ad libitum fed treated with testosterone, 28.3±0.9 gm, n=6, following two weeks of feeding. The average food consumed was, in gm/mouse/day, 2.2, 3.8, 3.8 and 4.0 for the food restricted, ad libitum fed, ad libitum fed plus DHEA, and ad libitum fed plus testosterone groups, respectively.

T1 sequence (F1MMK2 31-70): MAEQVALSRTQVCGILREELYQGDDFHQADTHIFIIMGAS
T1 sequence (F1MMK2 101-575): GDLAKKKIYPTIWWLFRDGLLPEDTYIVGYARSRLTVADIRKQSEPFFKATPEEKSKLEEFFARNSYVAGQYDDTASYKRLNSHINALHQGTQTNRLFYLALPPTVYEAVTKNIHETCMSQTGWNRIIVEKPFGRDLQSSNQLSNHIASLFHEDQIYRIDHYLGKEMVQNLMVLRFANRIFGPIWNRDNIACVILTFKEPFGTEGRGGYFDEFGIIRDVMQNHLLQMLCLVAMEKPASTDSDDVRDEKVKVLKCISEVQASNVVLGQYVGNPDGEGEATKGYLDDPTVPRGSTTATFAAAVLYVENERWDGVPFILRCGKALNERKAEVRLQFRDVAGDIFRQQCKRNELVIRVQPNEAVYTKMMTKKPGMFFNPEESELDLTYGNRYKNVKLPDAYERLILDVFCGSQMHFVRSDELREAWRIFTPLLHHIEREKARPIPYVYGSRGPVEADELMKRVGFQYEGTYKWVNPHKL

C[C@]12CCC(Cl)CC1=CC[C@@H]1[C@@H]2CC[C@]2(C)C(=O)CC[C@@H]12 (stereo partly drawn) [3 chloro-5-androstene-17-one]
estrogenic, anti-estrogenic, androgenic, anti-androgenic activity (in words) [1]: without any demonstrable estrogenic, androgenic, anti-androgenic or anti-estrogenic activity

C[C@H]1CC[C@@]2(C)C(=CC[C@@H]3[C@@H]2CC[C@]2(C)C(=O)[C@H](O)C[C@@H]32)C1 [Compound 19]
Mean Seminal Vesicle plus Prostate Weight ± S.D. [2]: 6.45 ± 0.65 mg/100 gm body weight | TPA stimulation in 3H-thymidine incorporation (in words) [3]: to a degree comparable to that produced by food restriction at doses well below 400 mg/kg | androgenic / anti-androgenic effect, seminal vesicle plus prostate weight (in words) ([4]; diet, male A/J mice): no significant effect on seminal vesicle plus prostate gland weight | SPECIFIC ACTIVITY ([3H]DMBA bound to skin DNA) ([5]; 400 mg/kg p.o.): 20.4 ± 1.1 cpm/ug DNA | anti-weight effect (in words) [6]: do not produce an anti-weight effect | weekly weight (Table 13) ([6]; week 0): 21.1 ± 0.8 | weekly weight (Table 13) ([6]; week 1): 19.1 ± 0.9 | weekly weight (Table 13) ([6]; week 2): 18.4 ± 1.0 | weekly weight (Table 13) ([6]; week 3): 18.7 ± 1.4 | weekly weight (Table 13) ([6]; week 4): 19.7 ± 1.1 | weekly weight (Table 13) ([6]; week 5): 20.6 ± 0.4 | estrogenic, anti-estrogenic, androgenic, anti-androgenic activity (in words) [1]: neither estrogenic, anti-estrogenic, androgenic, nor anti-androgenic activity | Mean Uterine Weight ± S.D. (rat uterus [7]): 2.16 ± 0.5 mg/100 gm body weight | estrogenic / anti-estrogenic effect, uterine weight (in words) (rat uterus [7]; s.c., 60 mg/kg or higher, female CD rats): no apparent estrogenic nor anti-estrogenic activity | G6PDH inhibition compared with DHEA (in words) [8]: more effective inhibitorsof G6PDH than is DHEA | inhibition at 1 µM [8]: 29% | inhibition at 10 µM [8]: 64%

C[C@H]1CC[C@@]2(C)C(=CC[C@@H]3[C@@H]2CC[C@]2(C)C(=O)[C@H](F)C[C@@H]32)C1 [Compound 20]
TPA stimulation in 3H-thymidine incorporation (in words) [3]: to a degree comparable to that produced by food restriction at doses well below 400 mg/kg | SPECIFIC ACTIVITY ([3H]DMBA bound to skin DNA) ([5]; 100 mg/kg p.o.): 48.4 ± 2.6 cpm/ug DNA | SPECIFIC ACTIVITY ([3H]DMBA bound to skin DNA) ([5]; 200 mg/kg p.o.): 43.7 ± 1.5 cpm/ug DNA | anti-weight effect (in words) [6]: do not produce an anti-weight effect | inhibition at 1 µM [8]: 55% | inhibition at 10 µM [8]: 46%

C[C@H]1CC[C@@]2(C)C(=CC[C@@H]3[C@@H]2CC[C@]2(C)C(=O)[C@H](C)C[C@@H]32)C1 [Compound 21]
Mean Seminal Vesicle plus Prostate Weight ± S.D. ([4]; 0.36% of diet, 4 weeks, n = 5): 5.1 ± 1.4 mg/100 gm body weight | mean weekly weight ± S.D. ([6]; week 0): 22.7 ± 1.9 grams | mean weekly weight ± S.D. ([6]; week 1): 20.1 ± 2.1 grams | mean weekly weight ± S.D. ([6]; week 2): 19.9 ± 2.3 grams | mean weekly weight ± S.D. ([6]; week 3): 22.2 ± 2.3 grams | estrogenic, anti-estrogenic, androgenic, anti-androgenic activity (in words) [1]: neither estrogenic, anti-estrogenic, androgenic, nor anti-androgenic activity | Mean Uterine Weight ± S.D. (rat uterus [7]): 1.76 ± 0.21 mg/100 gm body weight | G6PDH inhibition compared with DHEA (in words) [8]: more effective inhibitorsof G6PDH than is DHEA | inhibition at 1 µM [8]: 36% | inhibition at 10 µM [8]: 48%

C[C@]12CC[C@@H]3c4ccc(OC(=O)c5ccccc5)cc4CC[C@H]3[C@@H]1CC[C@@H]2O [Estradiol-benzoate, reference compound]
Mean Uterine Weight (rat uterus [9]): 244 ± 44 Mgs

C[C@]12CC[C@H]3[C@@H](CCC4=CC(=O)CC[C@@]43C)[C@@H]1CC[C@@H]2O [testosterone]
rate of binding of topically applied 3H-DMBA to skin DNA (in words) [10]: without inhibitory effect

Reference: patent US5804576A, “Derivatives of 5-androsten-17-ones and 5-androstan-17-ones” (Research Corporation Technologies, Inc., priority 1986, dated 1998)
